Data published in PMC12751025, “α‑Aminoboronic Acid Moieties in Boro Dipeptides Modulate Proteasome Subunit Selectivity and Provide Access to Compounds with Potent Anticancer and Anti-Inflammatory Activity” (Journal of Medicinal Chemistry, 2025).

Key:
β5c subunit of human cCP = target: T1, β5c subunit of human cCP (Homo sapiens, UniProt P20618+P28074); assay: IC50 determination with fluorogenic substrate Ac-WLA-AMC; format: biochemical; conditions: human cCP; mean of at least three experiments; NA: not active at 50 μM
T1 construct: purchased Boston Biochem, Inc
Description: (§1) The measurements of the residual activity of control compounds were carried out at final compound concentrations of 1 μM in the assay buffer (50 mM Tris-HCl, 0.5 mM ethylenediaminetetraacetic acid (EDTA), pH 7.4). Stock solutions of the compounds were prepared in DMSO. To the 35 μL of solution of the compound in the buffer, 35 μL of 0.4 nM human iCP (South Bay Bio, San Jose, CA, USA) or human cCP (Boston Biochem, Inc., Cambridge, MA, USA) was added. For assays evaluating the activity of β2c and β2i, the buffer was modified by adding the proteasomal activator PA28β (Boston Biochem, Inc., Cambridge, MA, USA) at a final concentration of 6 nM. […] The substrates used were acetyl-Nle-Pro-Nle-Asp-7-amino-4-methylcoumarin (Ac-nLPnLD-AMC, Bachem, Bubendorf, Switzerland) for β1c, acetyl-Pro-Ala-Leu-7-amino-4-methylcoumarin (Ac-PAL-AMC, Boston Biochem, Inc., Cambridge, MA, USA) for β1i, acetyl-Arg-Leu-Arg-7-amino-4-methylcoumarin (Ac-RLR-AMC, Bachem, Bubendorf, Switzerland) for β2c and β2i, acetyl-Trp-Leu-Ala-7-amino-4-methylcoumarin (Ac-WLA-AMC, Bachem, Bubendorf, Switzerland) for β5c, and acetyl-Ala-Asn-Trp-7-amino-4-methylcoumarin (Ac-ANW-AMC, Bachem, Bubendorf, Switzerland) for β5i. Progress of the reaction was measured using a BioTek Synergy HT microplate reader, monitoring fluorescence at 460 nm (excitation at 360 nm) for 60 min at 37 °C. The initial linear ranges were used to calculate the reaction velocity and determine the residual activity.
(§2) The final assay mixtures contained 0.4 nM human iCP or cCP in assay buffer (50 mM Tris-HCl, 0.5 mM EDTA, pH 7.4, addition of PA28β for β2c and β2i subunits). […] After incubation at 37 °C for 30 min, the reaction was initiated by the addition of the substrate Ac-nLPnLD-AMC for β1c, Ac-PAL-AMC for β1i, Ac-RLR-AMC for β2c and β2i, Ac-WLA-AMC for β5c, and Ac-ANW-AMC for β5i. Fluorescence was monitored at 460 nm (excitation at 360 nm) for 60 min at 37 °C. The reaction progress was recorded and the initial linear phases were used to determine the velocity. The IC50 values were calculated using GraphPad Prism software (GraphPad Software, San Diego, CA, USA), and the results represent the mean values of at least three independent determinations.

β2c subunit of human cCP = target: T2, β2c subunit of human cCP (Homo sapiens, UniProt P49720+Q99436); assay: IC50 determination with fluorogenic substrate Ac-RLR-AMC (PA28β added); format: biochemical; conditions: human cCP; mean of at least three experiments; NA: not active at 50 μM
T2 construct: purchased Boston Biochem, Inc
Description: Stock solutions of the compounds were prepared in DMSO. To the 35 μL of solution of the compound in the buffer, 35 μL of 0.4 nM human iCP (South Bay Bio, San Jose, CA, USA) or human cCP (Boston Biochem, Inc., Cambridge, MA, USA) was added. For assays evaluating the activity of β2c and β2i, the buffer was modified by adding the proteasomal activator PA28β (Boston Biochem, Inc., Cambridge, MA, USA) at a final concentration of 6 nM. […] The substrates used were acetyl-Nle-Pro-Nle-Asp-7-amino-4-methylcoumarin (Ac-nLPnLD-AMC, Bachem, Bubendorf, Switzerland) for β1c, acetyl-Pro-Ala-Leu-7-amino-4-methylcoumarin (Ac-PAL-AMC, Boston Biochem, Inc., Cambridge, MA, USA) for β1i, acetyl-Arg-Leu-Arg-7-amino-4-methylcoumarin (Ac-RLR-AMC, Bachem, Bubendorf, Switzerland) for β2c and β2i, acetyl-Trp-Leu-Ala-7-amino-4-methylcoumarin (Ac-WLA-AMC, Bachem, Bubendorf, Switzerland) for β5c, and acetyl-Ala-Asn-Trp-7-amino-4-methylcoumarin (Ac-ANW-AMC, Bachem, Bubendorf, Switzerland) for β5i. Progress of the reaction was measured using a BioTek Synergy HT microplate reader, monitoring fluorescence at 460 nm (excitation at 360 nm) for 60 min at 37 °C. The initial linear ranges were used to calculate the reaction velocity and determine the residual activity.
as §2

β1i subunit of human iCP = β1i subunit of human iCP (Homo sapiens, UniProt P28065+P40306); assay: IC50 determination with subunit-specific fluorogenic substrate Ac-PAL-AMC; conditions: IC50 β1i, human iCP; mean of at least three experiments; NA: not active at 50 μM
Description: as §1, §2

β2i subunit of human iCP = β2i subunit of human iCP (Homo sapiens, UniProt P40306+P49720); assay: IC50 determination with fluorogenic substrate Ac-RLR-AMC (PA28β added)
Description: as §1, §2

[1] = Human plasma protein binding, equilibrium dialysis; format: in vitro ADME; conditions: for % of bound compound: human plasma, 1 μM, dialysis 5 h; for recovery at 5 h, 1 µM: human, pH 7.4; for recovery at 5 h, 1 µM / Stability [%]: plasma protein binding assay
Description: Human plasma protein binding
The assay was performed in a multiple-use 96-well dialysis unit (HTD96b dialyzer). Each individual well unit consisted of two chambers separated by a vertically aligned dialysis membrane of predetermined pore size (MWCO 14 kDa). 125 µL of non-diluted plasma spiked with the compound (1 μM, final DMSO and acetonitrile concentration was 0.005% and 1%, respectively) was added to one chamber and the same volume of PBS buffer pH 7.4 to the other chamber. HTD96b dialyzer was incubated with shaking (250 rpm) at 37 °C, 5% CO2, and a saturating humidity (~95%) for 5 h. For samples preparation, an aliquot of the content of each chamber had been mixed with the same volume of the blank opposite matrix. In order to define non-specific loss of the compound during this assay, standard solution was created by mixing an aliquot of spiked plasma with blank buffer without dialysis. Two aliquots of the standard solution were incubated with shaking (250 rpm) at 37 °C, 5% CO2, and a saturating humidity (~95%) for 5 h (recovery samples). The other two aliquots were immediately diluted with acetonitrile and stored at 4 °C until LC-MS/MS analysis (stability samples). All samples were diluted 5-fold with 90% acetonitrile with internal standard with subsequent plasma proteins sedimentation by centrifuging at 6000 rpm for 5 min. Supernatants were analyzed using HPLC system coupled with tandem mass spectrometer. […]

[2] = Gastrointestinal tract parallel artificial membrane permeability (PAMPA) assay; format: in vitro ADME; conditions: GIT PAMPA; for Permeability, Log10 [cm/s]: pH 7.4, 50 μM, 4 hours; for Papp at 4 h, 50 μM: pH 7.4, read-out: Pe
Description: Gastrointestinal tract parallel artificial membrane permeability (PAMPA) assay All steps of the PAMPA were carried out according to the pION Inc. PAMPA Explorer™ Manual. The main principle of the assay is the incubation of the compound in the donor chamber (a well in the Donor Plate) with an aqueous buffer, which is separated from the acceptor chamber (a well in the Acceptor Plate) with another buffer by a phospholipid or hydrocarbon membrane fixed on a filter support. After the test, concentrations in the corresponding donor and acceptor wells are measured, and permeability is calculated. The GIT model was simulated using the GIT-0 phospholipid mix.
Verapamil, quinidine (high permeability), and ranitidine (low permeability) were used as reference […]
All compounds were tested in triplicate. Prisma HT buffer (pH 7.4) containing 50 μM test compounds (0.5% DMSO) was added to the Donor Plate wells. Acceptor Sink Buffer was added to each well of the Acceptor Plate. Incubation was done at room temperature for 4 hours without stirring. After […]
incubation, aliquots from both plates were transferred to optic UV-Vis plates, and optic plates were read on a microplate reader in absorbance mode in the range of 230-550 nm with a 4 nm step. Then, the apparent permeability coefficient was calculated. […]
In order to define non-specific loss of the compound during this assay, standard solution was created by mixing an aliquot of spiked plasma with blank buffer without dialysis. Two aliquots of the standard solution were incubated with shaking (250 rpm) at 37 °C, 5% CO2, and a saturating humidity (~95%) for 5 h (recovery samples). The other two aliquots were immediately diluted with acetonitrile and stored at 4 °C until LC-MS/MS analysis (stability samples). All samples were diluted 5-fold with 90% acetonitrile with internal standard with subsequent plasma proteins sedimentation by centrifuging at 6000 rpm for 5 min. Supernatants were analyzed using HPLC system coupled with tandem mass spectrometer. Verapamil was used as a reference compound to control proper assay […]
Bortezomib and its analogs are known to exist as the free boronic acid as well as dimeric and trimeric boronic anhydrides. These forms interconvert rapidly in solution and are indistinguishable by routine […]
activity of such compounds. On UHPLC, the interconverting boronic species were not chromatographically resolved; however, diastereomers were at least partially separated, yielding two distinct chromatographic signals with identical mass spectra. By contrast, the bortezomib reference standard produced a single chromatographic signal, consistent with its pure enantiomeric form (see

β5i subunit of human iCP = β5i subunit of human iCP (Homo sapiens, UniProt P20618+P28062); assay: IC50 determination with fluorogenic substrate Ac-ANW-AMC; conditions: IC50 β5i, human iCP; mean of at least three experiments; NA: not active at 50 μM
Description: as §1, §2

β1c subunit of human cCP = target: T3, β1c subunit of human cCP (Homo sapiens, UniProt P28072+Q99436); assay: IC50 determination with subunit-specific fluorogenic substrate Ac-nLPnLD-AMC; format: biochemical; conditions: human cCP; mean of at least three experiments; NA: not active at 50 μM
T3 construct: purchased Boston Biochem, Inc
Description: as §1, §2

PBMCs = assay: Cytotoxicity MTS assay; format: cell-based, human; conditions: 10, 50 and 250 nM, 24 h, MTS (Figure S1)
Description: Buffy coats from venous blood of anonymized healthy donors were purchased from Blood Transfusion Centre of Slovenia. PBMCs were isolated by density gradient centrifugation with Ficoll-Paque (Pharmacia, Sweden). The isolated cells were resuspended in RPMI 1640 medium (Sigma-Aldrich, St. Louis/MO, United States) supplemented with 10% heat-inactivated FBS (Gibco, ThermoFisher Scientific, Waltham/MA, United States), 2 mM L-glutamine (Sigma-Aldrich, St. Louis/MO, United States), 100 U/mL penicillin (Sigma-Aldrich, St. Louis/MO, United States), and 100 μg/mL streptomycin (Sigma-Aldrich, St. Louis/MO, United States).
Cytotoxicity was determined using the MTS cell proliferation assay (CellTiter 96 AQueous One Solution Cell Proliferation Assay, Promega, Wisconsin, USA), which measures mitochondrial metabolic activity as a surrogate for cell viability. The assay was performed according to the manufacturer protocol. The cytotoxicity was performed on HepG2, MCF-7, MDA-MB-231, MOLT-4, MM.1S, THP-1, RAJI cell lines and on HUVECs as well as PBMCs. The cells were seeded in 96-well plates (15.000–30.000 cells/well). After 24 h incubation at 5% CO2 and 37 °C, the cells were treated either with DMSO (negative control) or solutions of the tested compounds in DMSO. […] Cells were incubated for additional 2 h - 4 h, followed by the measurement of absorbance at 490 nm on the Tecan Spark microplate reader.

[3] = tested on: human umbilical vein endothelial cells; assay: Cytotoxicity MTS assay; format: cell-based; conditions: 10, 50 and 250 nM, 72 h, MTS (Figure S2)
Description: Cytotoxicity was determined using the MTS cell proliferation assay (CellTiter 96 AQueous One Solution Cell Proliferation Assay, Promega, Wisconsin, USA), which measures mitochondrial metabolic activity as a surrogate for cell viability. The assay was performed according to the manufacturer protocol. The cytotoxicity was performed on HepG2, MCF-7, MDA-MB-231, MOLT-4, MM.1S, THP-1, RAJI cell lines and on HUVECs as well as PBMCs. The cells were seeded in 96-well plates (15.000–30.000 cells/well). After 24 h incubation at 5% CO2 and 37 °C, the cells were treated either with DMSO (negative control) or solutions of the tested compounds in DMSO. After 24 or 72 h, MTS reagent was added. Cells were incubated for additional 2 h - 4 h, followed by the measurement of absorbance at 490 nm on the Tecan Spark microplate reader.

Row | Compound | IC50 (β5c subunit of human cCP) [µM] | IC50 (β2c subunit of human cCP) [µM] | IC50 (β1i subunit of human iCP) [µM] | IC50 (β2i subunit of human iCP) [µM] | % of bound compound [1] [%] | recovery at 5 h, 1 µM [1] [%] | Stability [%] [1] [%] | Pe [2] [×10⁻⁶ cm/s] | Permeability, Log10 [cm/s] [2] | Papp at 4 h, 50 μM [2] [×10⁻⁶ cm/s] | IC50 (β5i subunit of human iCP) [µM] | IC50 (β1c subunit of human cCP) [µM] | cytotoxic effect on PBMCs (PBMCs) | cytotoxic effect on human umbilical vein endothelial cells [3]
1 | O=C(N[C@@H](Cc1ccccc1)C(=O)N[C@H](B(O)O)C1CCCC1)c1cnccn1 [5l, ((R)-Cyclopentyl((S)-3-phenyl-2-(pyrazine-2-carboxamido)propanamido)methyl)boronic Acid] | 0.044 | 37.4 | 0.003 | 1 | 91 | 93 | 86 | 15.8 | -4.8 ± 0.06 Log10 [cm/s] | 15.8 | 0.058 | 0.018 | – | –
2 | CC(C)C[C@H](NC(=O)[C@H](Cc1ccccc1)NC(=O)c1cnccn1)B(O)O [bortezomib, reference compound] | – | – | – | – | 93 | 100 | 92 | 15.8 | -4.8 ± 0.02 Log10 [cm/s] | 15.8 | – | – | more cytotoxic | more cytotoxic
